Assay results: patent publication US7192906B2, “Substituted pyrazole derivatives, production process thereof, and herbicide compositions containing the derivatives” (SDS Biotech K.K., priority 2001, dated 2007)

Key:
Type in all cases: in vivo
Monochoria vaginalis = experiment: Test Example 3 paddy field treatment; settings: paddy field treatment, wettable powder, active ingredient 1 kg per hectare, 21st day after the dropping, index 0-5
In short: (§1)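 Weed seeds sown in puddled paddy soil under 4 cm water, with two-leaf Koshihikari rice transplanted; 10 days later a wettable powder was applied to the water surface at 1 kg active ingredient/ha. Scored 21 days after application on a 0–5 scale (0 = <10%, 5 = ≥90% herbicidal effect or phytotoxicity).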

Ammannia multiflora = experiment: Test Example 3 paddy field treatment; settings: paddy field treatment, wettable powder, active ingredient 1 kg per hectare, 21st day after the dropping, index 0-5
In short: as §1

Scirpus juncoides = experiment: Test Example 3 paddy field treatment; settings: paddy field treatment, wettable powder, active ingredient 1 kg per hectare, 21st day after the dropping, index 0-5
In short: as §1

Echinochloa crusgalli = experiment: Test Example 3 paddy field treatment; settings: paddy field treatment, wettable powder, active ingredient 1 kg per hectare, 21st day after the dropping, index 0-5
In short: as §1

Digitaria adscendens [1] = experiment: Test Example 2 upland soil treatment; settings: Table 5, upland soil treatment, index 0-5
In short: (§2)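 Pre-emergence soil application the day after sowing, active ingredient at 1 kg per hectare as diluted wettable powder, seeds covered with about 1 cm soil. Assessed 21 days after application on a 0–5 scale (5 = ≥90% herbicidal effect or phytotoxicity; 0 = <10%).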

Chenopodium album [2] = experiment: Test Example 2 upland soil treatment; settings: Table 5, upland soil treatment, index 0-5
In short: as §2

Stellaria media [3] = experiment: Test Example 2 upland soil treatment; settings: Table 5, upland soil treatment, index 0-5
In short: as §2

Setaria viridis [4] = experiment: Test Example 2 upland soil treatment; settings: Table 5, upland soil treatment, index 0-5
In short: as §2

[5] = system: wheat (Triticum aestivum); experiment: Test Example 1 upland field foliage treatment, crop phytotoxicity; settings: Table 4, upland field foliage treatment, index 0-5
In short: (§3)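 Post-emergence foliar spray of water-diluted wettable powder at 1 kg active ingredient per hectare, applied 14 days after sowing in upland soil. Weed control or crop phytotoxicity rated 21 days later on a 0–5 scale (5: ≥90%, 0: <10%).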

soybean (Glycine max) [6] = experiment: as above; settings: Table 4, upland field foliage treatment, index 0-5
In short: as §3

Rice (Oryza sativa) = experiment: Test Example 3 paddy field treatment, crop phytotoxicity; settings: paddy field treatment, transplanted rice Koshihikari, wettable powder, active ingredient 1 kg per hectare, 21st day after the dropping, index 0-5
In short: as §1

Digitaria adscendens [7] = experiment: Test Example 1 upland field foliage treatment; settings: Table 4, upland field foliage treatment, index 0-5
In short: as §3

Chenopodium album [8] = experiment: Test Example 1 upland field foliage treatment; settings: Table 4, upland field foliage treatment, index 0-5
In short: as §3

Stellaria media [9] = experiment: Test Example 1 upland field foliage treatment; settings: Table 4, upland field foliage treatment, index 0-5
In short: as §3

Setaria viridis [10] = experiment: Test Example 1 upland field foliage treatment; settings: Table 4, upland field foliage treatment, index 0-5
In short: as §3

[11] = system: wheat (Triticum aestivum); experiment: Test Example 2 upland soil treatment, crop phytotoxicity; settings: Table 5, upland soil treatment, index 0-5
In short: as §2

soybean (Glycine max) [12] = experiment: as above; settings: Table 5, upland soil treatment, index 0-5
In short: as §2

Structure (SMILES) | Herbicidal activity MV (Monochoria vaginalis) | Herbicidal activity AM (Ammannia multiflora) | Herbicidal activity SJ (Scirpus juncoides) | Herbicidal activity EC (Echinochloa crusgalli) | Herbicidal activity DA: Digitaria adscendens (Digitaria adscendens [1]) | Herbicidal activity CA: Chenopodium album (Chenopodium album [2]) | Herbicidal activity SM: Stellaria media (Stellaria media [3]) | Herbicidal activity SV: Setaria viridis (Setaria viridis [4]) | Herbicidal activity (phytotoxicity) TA: Wheat (Triticum aestivum) [5] | Herbicidal activity (phytotoxicity) GM: Soybean (Glycine max) (soybean (Glycine max) [6]) | Herbicidal activity OS (phytotoxicity to rice) (Rice (Oryza sativa)) | Herbicidal activity DA: Digitaria adscendens (Digitaria adscendens [7]) | Herbicidal activity CA: Chenopodium album (Chenopodium album [8]) | Herbicidal activity SM: Stellaria media (Stellaria media [9]) | Herbicidal activity SV: Setaria viridis (Setaria viridis [10]) | Herbicidal activity (phytotoxicity) TA: Wheat (Triticum aestivum) [11] | Herbicidal activity (phytotoxicity) GM: Soybean (Glycine max) (soybean (Glycine max) [12])
CNC(=O)C(Cn1cc(C)c(-c2cccc(F)c2)n1)=NOC [Compound 43] | 5 (herbicidal effect of not less than 90%, or phytotoxicity of 90% or more) | 5 (herbicidal effect of not less than 90%, or phytotoxicity of 90% or more) | 5 (herbicidal effect of not less than 90%, or phytotoxicity of 90% or more) | 5 (herbicidal effect of not less than 90%, or phytotoxicity of 90% or more) | 5 (herbicidal effect of not less than 90%, or phytotoxicity of 90% or more) | 5 (herbicidal effect of not less than 90%, or phytotoxicity of 90% or more) | 5 (herbicidal effect of not less than 90%, or phytotoxicity of 90% or more) | 5 (herbicidal effect of not less than 90%, or phytotoxicity of 90% or more) | 0 (herbicidal effect of not less than 0% and less than 10%, or phytotoxicity of 0% or more and less than 10%) | 0 (herbicidal effect of not less than 0% and less than 10%, or phytotoxicity of 0% or more and less than 10%) | 1 (herbicidal effect of not less than 10% and less than 30%, or phytotoxicity of 10% or more and less than 30%) | 5 (herbicidal effect of not less than 90%, or phytotoxicity of 90% or more) | 5 (herbicidal effect of not less than 90%, or phytotoxicity of 90% or more) | 5 (herbicidal effect of not less than 90%, or phytotoxicity of 90% or more) | 5 (herbicidal effect of not less than 90%, or phytotoxicity of 90% or more) | 0 (herbicidal effect of not less than 0% and less than 10%, or phytotoxicity of 0% or more and less than 10%) | 1 (herbicidal effect of not less than 10% and less than 30%, or phytotoxicity of 10% or more and less than 30%)
CNC(=O)C(Cn1cc(C)c(-c2ccc(F)cc2)n1)=NOC [Compound 44] | 5 (herbicidal effect of not less than 90%, or phytotoxicity of 90% or more) | 5 (herbicidal effect of not less than 90%, or phytotoxicity of 90% or more) | 5 (herbicidal effect of not less than 90%, or phytotoxicity of 90% or more) | 5 (herbicidal effect of not less than 90%, or phytotoxicity of 90% or more) | 5 (herbicidal effect of not less than 90%, or phytotoxicity of 90% or more) | 5 (herbicidal effect of not less than 90%, or phytotoxicity of 90% or more) | 5 (herbicidal effect of not less than 90%, or phytotoxicity of 90% or more) | 5 (herbicidal effect of not less than 90%, or phytotoxicity of 90% or more) | 0 (herbicidal effect of not less than 0% and less than 10%, or phytotoxicity of 0% or more and less than 10%) | 0 (herbicidal effect of not less than 0% and less than 10%, or phytotoxicity of 0% or more and less than 10%) | 1 (herbicidal effect of not less than 10% and less than 30%, or phytotoxicity of 10% or more and less than 30%) | 5 (herbicidal effect of not less than 90%, or phytotoxicity of 90% or more) | 5 (herbicidal effect of not less than 90%, or phytotoxicity of 90% or more) | 5 (herbicidal effect of not less than 90%, or phytotoxicity of 90% or more) | 5 (herbicidal effect of not less than 90%, or phytotoxicity of 90% or more) | 0 (herbicidal effect of not less than 0% and less than 10%, or phytotoxicity of 0% or more and less than 10%) | 0 (herbicidal effect of not less than 0% and less than 10%, or phytotoxicity of 0% or more and less than 10%)
